Experiments:
[1] = target: T1, 5-hydroxytryptamine receptor 1A (Rattus norvegicus, UniProt P19327); test: The compound was tested for binding affinity on [3H]8-OH-DPAT as specific ligand on 5-hydroxytryptamine 1A receptor in rat hippocampus; type: tissue-based
T1 sequence (P19327 whole entry): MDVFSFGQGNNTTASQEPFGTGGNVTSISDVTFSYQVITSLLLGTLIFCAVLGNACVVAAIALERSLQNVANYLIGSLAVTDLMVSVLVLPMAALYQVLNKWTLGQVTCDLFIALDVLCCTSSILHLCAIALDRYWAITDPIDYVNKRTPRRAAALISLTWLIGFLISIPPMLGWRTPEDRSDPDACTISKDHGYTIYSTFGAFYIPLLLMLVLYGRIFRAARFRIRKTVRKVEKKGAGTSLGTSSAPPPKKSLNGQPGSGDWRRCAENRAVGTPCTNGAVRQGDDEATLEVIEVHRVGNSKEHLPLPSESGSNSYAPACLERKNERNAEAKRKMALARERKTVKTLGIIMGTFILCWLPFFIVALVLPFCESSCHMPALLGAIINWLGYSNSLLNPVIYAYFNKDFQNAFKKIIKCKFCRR

[2] = target: T2, Alpha-1D adrenergic receptor (Homo sapiens, UniProt P25100); test: The compound was tested for binding affinity on [3H]- prazosin as specific ligand on Human cloned alpha-1D adrenergic receptor in CHO cells; type: cell-based
T2 sequence (P25100 whole entry): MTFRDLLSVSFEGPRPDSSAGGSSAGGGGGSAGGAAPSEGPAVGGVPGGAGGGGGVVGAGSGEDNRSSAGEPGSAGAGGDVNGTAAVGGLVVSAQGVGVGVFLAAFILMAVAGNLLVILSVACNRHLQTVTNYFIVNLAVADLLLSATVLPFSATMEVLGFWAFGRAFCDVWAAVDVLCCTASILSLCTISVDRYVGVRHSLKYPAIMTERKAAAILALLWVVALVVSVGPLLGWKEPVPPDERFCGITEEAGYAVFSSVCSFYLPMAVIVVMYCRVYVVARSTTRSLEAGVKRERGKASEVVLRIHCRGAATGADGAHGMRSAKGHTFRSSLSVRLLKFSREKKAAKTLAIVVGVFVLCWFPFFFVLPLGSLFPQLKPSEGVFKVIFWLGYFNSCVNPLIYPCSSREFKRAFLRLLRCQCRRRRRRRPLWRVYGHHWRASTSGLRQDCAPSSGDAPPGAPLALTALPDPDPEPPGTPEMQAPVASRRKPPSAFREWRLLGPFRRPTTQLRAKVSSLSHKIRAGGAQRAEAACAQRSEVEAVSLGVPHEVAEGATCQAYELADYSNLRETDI

[3] = target: T3, Alpha-1A adrenergic receptor (Homo sapiens, UniProt P35348); test: The compound was tested for binding affinity on [3H]- prazosin as specific ligand on Human cloned alpha-1A adrenergic receptor expressed in CHO cells; type: cell-based
T3 sequence (P35348 whole entry): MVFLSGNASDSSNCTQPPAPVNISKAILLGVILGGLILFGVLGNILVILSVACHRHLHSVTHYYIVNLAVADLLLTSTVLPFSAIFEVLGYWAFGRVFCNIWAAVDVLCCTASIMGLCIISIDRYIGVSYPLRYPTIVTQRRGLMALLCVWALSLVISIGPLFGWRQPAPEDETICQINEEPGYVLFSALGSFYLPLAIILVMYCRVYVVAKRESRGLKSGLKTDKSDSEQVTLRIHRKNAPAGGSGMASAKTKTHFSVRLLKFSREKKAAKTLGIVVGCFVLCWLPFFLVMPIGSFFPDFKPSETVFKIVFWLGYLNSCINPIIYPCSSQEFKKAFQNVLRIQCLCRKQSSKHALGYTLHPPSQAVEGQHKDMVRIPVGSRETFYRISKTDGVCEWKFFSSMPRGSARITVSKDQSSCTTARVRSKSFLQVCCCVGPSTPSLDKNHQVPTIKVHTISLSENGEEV

[4] = target: T4, Alpha-1B adrenergic receptor (Homo sapiens, UniProt P35368); test: The compound was tested for binding affinity on [3H]- prazosin as specific ligand on Human cloned alpha-1B adrenergic receptor in CHO cells; type: cell-based
T4 sequence (P35368 whole entry): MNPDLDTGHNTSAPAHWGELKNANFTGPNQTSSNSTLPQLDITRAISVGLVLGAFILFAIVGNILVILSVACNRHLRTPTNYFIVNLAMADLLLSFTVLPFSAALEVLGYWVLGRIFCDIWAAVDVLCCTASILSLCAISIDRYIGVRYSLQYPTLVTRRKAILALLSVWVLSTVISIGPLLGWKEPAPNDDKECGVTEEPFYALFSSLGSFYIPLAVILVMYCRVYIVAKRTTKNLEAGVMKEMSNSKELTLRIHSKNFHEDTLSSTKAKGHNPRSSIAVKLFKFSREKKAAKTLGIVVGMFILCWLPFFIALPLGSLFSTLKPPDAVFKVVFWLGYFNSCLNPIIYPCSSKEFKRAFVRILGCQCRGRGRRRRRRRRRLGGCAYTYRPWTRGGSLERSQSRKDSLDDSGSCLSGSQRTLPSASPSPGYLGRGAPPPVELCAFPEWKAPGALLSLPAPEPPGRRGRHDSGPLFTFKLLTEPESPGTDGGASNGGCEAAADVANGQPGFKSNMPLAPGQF

[5] = Ratio of the binding affinities against 5-HT1A and alpha-1-adrenoceptor from rat brain membranes.; type: cell membranes; conditions: Membrane
[6] = target: T5, Adrenergic receptor alpha-1 (Rattus norvegicus, UniProt P15823+P23944+P43140); test: The compound was tested for binding affinity on [3H]- prazosin as specific ligand on alpha-1 adrenergic receptor cells in rat cerebral cortex; type: tissue-based
T5 sequence (P15823 whole entry): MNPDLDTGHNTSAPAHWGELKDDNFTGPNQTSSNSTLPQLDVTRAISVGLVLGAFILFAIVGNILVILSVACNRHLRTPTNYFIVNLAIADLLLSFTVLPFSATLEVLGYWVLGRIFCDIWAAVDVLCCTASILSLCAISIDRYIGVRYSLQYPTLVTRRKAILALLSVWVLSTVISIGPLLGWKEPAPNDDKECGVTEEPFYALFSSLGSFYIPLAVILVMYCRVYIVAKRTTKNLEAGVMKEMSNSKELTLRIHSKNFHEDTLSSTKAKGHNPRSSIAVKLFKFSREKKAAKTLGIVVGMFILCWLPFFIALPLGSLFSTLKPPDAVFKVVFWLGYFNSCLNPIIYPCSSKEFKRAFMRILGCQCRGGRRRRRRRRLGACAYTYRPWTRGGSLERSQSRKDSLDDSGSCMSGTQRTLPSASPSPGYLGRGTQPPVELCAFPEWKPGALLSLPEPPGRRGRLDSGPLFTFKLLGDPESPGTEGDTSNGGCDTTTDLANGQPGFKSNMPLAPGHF
T5 sequence (P23944 whole entry): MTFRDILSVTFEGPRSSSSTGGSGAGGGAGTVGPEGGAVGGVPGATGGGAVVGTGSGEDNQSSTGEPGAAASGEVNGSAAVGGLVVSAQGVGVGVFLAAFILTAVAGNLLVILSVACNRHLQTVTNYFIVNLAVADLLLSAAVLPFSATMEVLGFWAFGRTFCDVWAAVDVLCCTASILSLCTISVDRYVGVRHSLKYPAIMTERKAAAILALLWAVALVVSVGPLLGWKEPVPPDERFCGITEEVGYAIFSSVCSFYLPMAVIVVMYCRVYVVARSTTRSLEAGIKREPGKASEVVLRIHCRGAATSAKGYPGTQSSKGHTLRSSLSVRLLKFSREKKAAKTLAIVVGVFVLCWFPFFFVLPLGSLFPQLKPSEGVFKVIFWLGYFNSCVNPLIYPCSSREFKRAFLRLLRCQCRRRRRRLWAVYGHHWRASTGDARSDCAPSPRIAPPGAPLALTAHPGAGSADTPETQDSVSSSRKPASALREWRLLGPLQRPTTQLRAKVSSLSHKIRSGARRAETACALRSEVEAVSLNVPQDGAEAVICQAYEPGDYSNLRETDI
T5 sequence (P43140 whole entry): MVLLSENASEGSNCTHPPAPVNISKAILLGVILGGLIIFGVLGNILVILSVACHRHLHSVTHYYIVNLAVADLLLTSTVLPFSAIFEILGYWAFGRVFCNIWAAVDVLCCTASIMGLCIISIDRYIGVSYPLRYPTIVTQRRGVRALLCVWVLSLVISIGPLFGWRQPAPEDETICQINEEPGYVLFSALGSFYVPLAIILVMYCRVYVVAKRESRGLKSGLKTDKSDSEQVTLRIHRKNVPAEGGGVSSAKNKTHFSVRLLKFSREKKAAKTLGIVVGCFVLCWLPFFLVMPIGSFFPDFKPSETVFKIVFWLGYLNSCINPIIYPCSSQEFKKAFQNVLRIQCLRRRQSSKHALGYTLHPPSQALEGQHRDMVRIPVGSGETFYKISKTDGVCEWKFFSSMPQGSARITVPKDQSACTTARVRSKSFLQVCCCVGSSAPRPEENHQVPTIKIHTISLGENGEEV

Ki [1]	Ki [2]	Ki [3]	Ki [4]	Ratio [5]	Ki [6]	SMILES
16.3 nM	3.04 nM	1.1 nM	15.2 nM	0.22	73.3 nM	COc1ccccc1N1CCN(CCNc2ccc3c4c(=O)n(C)nc(Cl)c4cn3n2)CC1
56.5 nM	11.9 nM	5.93 nM	13.6 nM	1.03	54.6 nM	Cn1nc(Cl)c2cn3nc(NCCN4CCN(c5ccccc5Cl)CC4)ccc3c2c1=O
123 nM	0.93 nM	4.75 nM	22.1 nM	5.01	24.6 nM	COc1ccccc1N1CCN(CCn2nc(-c3ccccc3)c(C(C)=O)c(N)c2=O)CC1
21.2 nM	6.56 nM	1.93 nM	15.6 nM	0.16	129.2 nM	Cn1nc(Cl)c2cn3nc(NCCN4CCN(c5ccccc5)CC4)ccc3c2c1=O

Reference: ChEMBL document CHEMBL1132200, “Novel adrenoceptor antagonists with a tricyclic pyrrolodipyridazine skeleton” (J Med Chem, 1999)
